Article PMC6017406, “Synthesis and Physicochemical Evaluation of Entecavir-Fatty Acid Conjugates in Reducing Food Effect on Intestinal Absorption” (Molecules : A Journal of Synthetic Chemistry and Natural …, 2018)
Values after ≈ are worked out from the molar mass of the structure shown. Like-named read-outs stand apart in the source and are kept apart here.

Columns and labels:
[1] = Equilibrium solubility in biorelevant media; type: physicochemical; conditions: for solubility thermodynamic at 3 days: thermodynamic from solid, mean ± SD (n = 3)
Procedure: The equilibrium solubilities of lipidic prodrugs in biorelevant media such as FaSSGF, FeSSGF, FaSSIF, and FeSSIF [32, 33] were assessed. FaSSGF was prepared with 0.08 mM of sodium taurocholate, 0.02 mM of lecithin, and 34.2 mM of NaCl in 1000 mL of distilled water (pH 1.6). FaSSIF was prepared with 3 mM of sodium taurocholate, 0.2 mM of lecithin, 19.1 mM of malate, 68.62 mM of NaCl, and 34.8 mM of NaOH in 1000 mL of distilled water (pH 6.5, osmolality: 270 mOsm∙kg^−1). FeSSGF was prepared with 230.0 mM of NaCl, 17.1 mM of acetic acid, and 29.75 mM of sodium acetate, in 1000 mL of mixture of milk (full fat 3.5%) and distilled water (pH 5.0, osmolality: 400 mOsm∙kg^−1). FeSSIF was prepared with 10 mM of sodium taurocholate, 2 mM of lecithin, 5 mM of glyceryl monooleate, 0.8 mM of sodium oleate, 55.0 mM of malate, 125.5 mM of NaCl, and 81.6 mM of NaOH in 1000 mL of distilled water (pH 5.8, osmolality: 390 mOsm∙kg^−1).
An excess amount of drug (500 mg) was added to biorelevant media in a scintillation vial. Drug suspensions were sonicated for 30 min and then shaken at 37 °C for 3 days using a shaking incubator. Samples were then centrifuged at 13,000 rpm for 10 min and the supernatant was appropriately diluted with mobile phase. The concentration of EV-FA in the medium was analyzed using HPLC as described above.

[2] = In vitro dissolution test in biorelevant media (USP 29 paddle method); type: physicochemical
Procedure: The United States Pharmacopeia 29 paddle method was used to assess the release profile of EV-C12 powder using a VK 7000 dissolution tester (Varian Medical Industries, Palo Alto, CA, USA). The EV-FA powder equivalent to 0.5 mg of the parent compound was immersed in 900 mL of biorelevant media maintained at 37 °C ± 0.1 °C at a paddle speed of 50 rpm. At fixed time intervals, aliquots (about 4 mL) were drawn and centrifuged at 13,000 rpm for 10 min. An equal volume of the test medium pre-warmed at 37 °C ± 0.1 °C was used for immediate replacement. The supernatant was appropriately diluted with methanol and the drug concentration in the supernatant was assayed by HPLC, as described earlier.

[3] = design: method as in PMID 27503646; conditions: cited from earlier work
[4] = design: method as in earlier work; conditions: oral 0.5 mg with high-fat meal (945 kcal, 54.6 g fat); cited from earlier work
[5] = Hydrolysis in simulated gastric fluid (pH 1.2); type: physicochemical; conditions: simulated gastric fluid pH 1.2, 37 °C, after 12 h, 20 μg/mL
Procedure: To estimate the chemical stability of these synthesized ester prodrugs in the stomach, their hydrolysis behavior was evaluated in simulated gastric fluid (pH 1.2). Each compound (10 mg) was dissolved in ethanol (10 mL) and then serially diluted with simulated gastric fluid at a drug concentration of 20 μg/mL. […]

[6] = design: method as in PMID 14498759; conditions: humans; cited from earlier work
[7] = fassgf or other biorelevant, FaSSGF pH 1.6, 37 °C, read-out: Equilibrium solubility FaSSGF
[8] = fassgf or other biorelevant, FeSSGF pH 5.0, 37 °C, read-out: Equilibrium solubility FeSSGF
[9] = FaSSIF pH 6.5, 37 °C, read-out: Equilibrium solubility FaSSIF
[10] = FeSSIF pH 5.8, 37 °C, read-out: Equilibrium solubility FeSSIF
[11] = all biorelevant media, 37 °C, 50 rpm

Structure (SMILES)	solubility thermodynamic at 3 days [1, 7] [mg/mL]	solubility thermodynamic at 3 days [1, 8] [mg/mL]	solubility thermodynamic at 3 days [1, 9] [mg/mL]	solubility thermodynamic at 3 days [1, 10] [mg/mL]	Hydrolyzed percentage [5] [%]	further results
C=C1[C@H](CO)[C@@H](O)C[C@@H]1n1cnc2c(=O)nc(N)[nH]c21 [EV, 2-amino-9-[(1S,3R,4S)-4-hydroxy-3-(hydroxymethyl)-2-methylidenecyclopentyl]-3H-purin-6-one, reference compound]	8.94 ± 0.092 (≈ 32200 µM)	2.152 ± 0.013 (≈ 7760 µM)	1.62 ± 0.023 (≈ 5860 µM)	2.24 ± 0.052 (≈ 8080 µM)		solubility at 3 days ([1]; biorelevant media (FaSSGF, fassgf or other biorelevant, thermodynamic from solid), FaSSGF, FaSSIF, FeSSGF, FeSSIF, 37 °C, read-out: Aqueous solubility in all media tested): > 1.6 mg/mL; Time to complete release ([2]; all biorelevant media (FaSSGF, FaSSIF, FeSSGF, FeSSIF), 37 °C, 50 rpm): ≤ 15 min; pKa [3]: 10.5; Solubility ([3]; distilled water at 25 °C): 2.4 mg/mL (≈ 8660 µM); logP ([3]; pH 4 to 10): −1.110; Decrease in maximum drug concentration in plasma [4]: 44–46%
C=C1[C@H](COC(=O)CCCCC)[C@@H](O)C[C@@H]1n1cnc2c(=O)[nH]c(N)nc21 [EV-C6, (1R,3S,5S)-3-(2-Amino-6-oxo-1H-purin-9(6H)-yl)-5-hydroxy-2-methylenecyclopentyl)methyl hexanoate]	0.00484 ± 0.0005 (≈ 12.9 µM)	0.0249 ± 0.0014 (≈ 66.3 µM)	0.00554 ± 0.0006 (≈ 14.8 µM)	0.0252 ± 0.0023 (≈ 67.1 µM)	59.1	
C=C1[C@H](COC(=O)CCCCCCC)[C@@H](O)C[C@@H]1n1cnc2c(=O)[nH]c(N)nc21 [EV-C8, ((1R,3S,5S)-3-(2-Amino-6-oxo-1H-purin-9(6H)-yl)-5-hydroxy-2-methylenecyclopentyl)methyl octanoate]	0.00474 ± 0.0003 (≈ 11.7 µM)	0.0382 ± 0.0015 (≈ 94.7 µM)	0.00574 ± 0.0003 (≈ 14.2 µM)	0.0367 ± 0.0012 (≈ 91 µM)	46.2	
C=C1[C@H](COC(=O)CCCCCCCCC)[C@@H](O)C[C@@H]1n1cnc2c(=O)[nH]c(N)nc21 [EV-C10, ((1R,3S,5S)-3-(2-Amino-6-oxo-1H-purin-9(6H)-yl)-5-hydroxy-2-methylenecyclopentyl)methyl decanoate]	0.00441 ± 0.0001 (≈ 10.2 µM)	0.0619 ± 0.0032 (≈ 143 µM)	0.00647 ± 0.0006 (≈ 15 µM)	0.0666 ± 0.0044 (≈ 154 µM)	44.4	
C=C1[C@H](COC(=O)CCCCCCCCCCC)[C@@H](O)C[C@@H]1n1cnc2c(=O)[nH]c(N)nc21 [EV-C12, ((1R,3S,5S)-3-(2-Amino-6-oxo-1H-purin-9(6H)-yl)-5-hydroxy-2-methylenecyclopentyl)methyl dodecanoate]	0.00482 ± 0.0002 (≈ 10.5 µM)	0.0766 ± 0.004 (≈ 167 µM)	0.0065 ± 0.0002 (≈ 14.1 µM)	0.0788 ± 0.0077 (≈ 171 µM)	22.5	Percent released within 30 min [2, 11]: more than 50%; Percent released/dissolved within 2 h [2, 11]: more than 90%; Concentration of EV in dissolution medium formed by hydrolysis of the lipidic compound ([2]; all media): less than 1%; Release rate constant (Hixon-Crowell cube-root model) ([2]; fourth medium listed (presumably FeSSIF), r^2 = 0.933): 0.053 mg^1/3/h; Release rate constant (Hixon-Crowell cube-root model) ([2]; second medium listed (presumably FaSSIF), r^2 = 0.914): 0.036 mg^1/3/h; Release rate constant (Hixon-Crowell cube-root model) ([2]; third medium listed (presumably FeSSGF), r^2 = 0.879): 0.048 mg^1/3/h
CC(C)(C)C(=O)OCOP(=O)(COCCn1cnc2c(N)ncnc21)OCOC(=O)C(C)(C)C [adefovir dipivoxil]						Oral bioavailability [6]: 59%
Nc1ncnc2c1ncn2CCOCP(=O)(O)O [hydrophilic parent compound]						Oral bioavailability [6]: 12%
